Measurements reported in patent publication US20220331217A1, “Hair restructuring association comprising a quaternary ammonium salt and a sulpho-derivative of vegetable fatty acids” (Greengredients S.r.l., priority 2021, published 2022).

Test: During breakage test combing (weight of broken hairs after 20 combings)
Details: bleached strands, treated at 15%, combed 20 times, vs bleached untreated reference
Excerpt: All samples (hair strands) have been combed for 20 times and broken hairs have been weighted (with 0.0001 g accuracy, METTLER TOLEDO EXCELLENCE analytical scale).

NCCCOCCOCCOCCCN.O=C(O)C=CC(=O)O.O=C(O)C=CC(=O)O [bis-aminopropyl diglycol dimaleate]
reduction in broken hairs: 50.00%
